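Cells were grown in 96-well plates and exposed to each compound for 48 hours at five concentrations; endpoints were interpolated linearly between bracketing concentrations, or set to the highest concentration if not reached. GI50 = concentration required for 50% inhibition of growth. Definition used: TGI = concentration required for complete inhibition of growth.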
Assays:
Assay in all cases: DTP human tumour cell line panel, 48 h
[1] = test system: M14 melanoma
[2] = test system: SK-MEL-2 melanoma
[3] = test system: BT-549 breast
[4] = test system: OVCAR-4 ovarian
[5] = test system: IGROV1 ovarian
[6] = test system: SK-MEL-28 melanoma
[7] = test system: RPMI-8226 leukemia

SMILES	TGI [1] [µM]	TGI [2] [µM]	TGI [3] [µM]	TGI [4] [µM]	TGI [5] [µM]	TGI [6] [µM]	TGI [7] [µM]	GI50 [1] [µM]	GI50 [2] [µM]	GI50 [3] [µM]	GI50 [4] [µM]	GI50 [5] [µM]	GI50 [6] [µM]	GI50 [7] [µM]
CC(=O)OCCc1cc2ccccc2oc1=O	> 100	> 100	> 100	> 100	> 100	> 100	> 100	–	–	–	–	–	–	–
Cc1cc(=O)[nH]c2c1C(=O)c1c(C)cc(=O)n(C)c1C2=O	0.0282	0.0592	0.0519	0.378	0.437	0.0351	> 9.41	–	–	–	–	–	–	–
Cc1ncc([N+](=O)[O-])n1CCOc1ccc(C(=O)/C=C/c2ccc(C(F)(F)F)cc2)cc1	14.8	13.6	17	14.6	4.13	21.9	4.37	3.85	3.43	4.64	2.99	2	10.2	1.91
CC(C)OC(=O)c1cc(NC(=S)OC(C)C)ccc1Cl	> 79.6	51.6	33.5	> 56	> 56.2	> 57	> 76.8	–	–	–	–	–	–	–
NCC[PH+](c1ccccc1)c1ccccc1.NCC[PH+](c1ccccc1)c1ccccc1.[Cl-].[Pt+4]	> 100	> 100	> 100	> 100	> 100	> 100	> 65.2	> 100	> 100	> 100	> 100	29.3	> 100	14.7
Cn1cc(C2=C(c3cccc([N+](=O)[O-])c3)C(=O)NC2=O)c2ccccc21	> 25	17.2	> 23.2	> 25	24.2	> 25	> 23.2	12.4	5.24	6.38	6.06	9.98	10.5	7.47
Nc1nc2c([nH]1)c1[nH]c3ccccc3c1c1[nH]c3ccccc3c21	27.8	32.4	25.5	35.3	22.6	23.7	28.3	14.4	16.2	12.1	15.4	10.2	11.5	9.83
O=C(NCCNC1=CC(=O)c2nc3ccccc3c3ccnc1c23)c1cnccn1	> 100	> 100	> 100	> 100	> 100	> 100	24.3	40.8	60.5	44.8	83.7	45.2	40.9	1.1
CN(Cc1cnc2nc(N)nc(N)c2n1)c1c(Cl)cc(C(=O)NC(CCC(=O)O)C(=O)O)cc1Br (centres undefined)	> 100	> 100	> 100	> 100	18.2	> 100	> 100	< 0.01	< 0.01	< 0.0122	> 100	< 0.01	> 23.8	< 0.01
CC1(C)N=C(N)N=C(N)N1c1ccc(CCCCCCc2ccc(S(=O)(=O)F)cc2)cc1	28.7	30.2	–	> 100	30.8	37.7	–	–	–	–	–	–	–	–
COc1ccc(-c2nc3sccn3c2/C=C/C(=O)c2cc(OC)c(OC)c(OC)c2)cc1	> 27.6	> 26.3	> 28.7	> 100	–	51.8	7.56	2.52	3.58	2.56	3.21	1.24	4.05	2.24
CCCCCCC1CCCCN1C(c1ccccc1)C(O)c1ccccc1 (centres undefined)	11.4	20.5	22.4	21.7	22	22.1	6.08	2.95	5.33	10.4	7.98	8.62	9.99	2.61
O=[N+]([O-])/C=C/c1cn(CCCCCCCCn2cc(/C=C/[N+](=O)[O-])c3ccccc32)c2ccccc12	> 10	> 10	–	> 10	> 10	> 10	1.11	–	–	–	–	–	–	–
C=C(c1ccc(C(=O)NCCCn2ccnc2)cc1)c1cc2c(cc1C)C(C)(C)CCC2(C)C	2.04	7.33	14.9	26	> 32	6.38	–	0.0627	2.71	3.14	4.1	1.92	1.71	–
COc1cc(C(=O)/C=C/c2c(C)n([O-])c3ccc(Cl)cc3[n+]2=O)cc(OC)c1OC	> 100	81.3	> 100	> 100	> 100	52.9	33.4	4.59	17	11	9.29	9.07	10.8	3.18
COC1CCC(OS(C)(=O)=O)C(C)O1 (centres undefined)	> 10	> 10	> 10	> 10	> 10	> 10	> 10	–	–	–	–	–	–	–
COc1ccc2c(c1)CCC1C2CCC2(C)C(NC(=O)CCCCC3CCSS3)CCC12 (centres undefined)	> 100	> 100	> 100	> 100	> 100	> 100	> 100	16.8	53.5	> 100	23	4.92	25.6	5.85
COc1cc(C(=O)Nc2ccc(-c3nc4ccccc4[nH]3)cc2)cc(OC)c1OC	–	29.5	29.2	36.9	31.5	28.6	30.6	–	14.5	12.7	11.8	14.1	13.7	6.35
CCOC1OC(C)(C=C(C#N)C#N)CCC1C (centres undefined)	> 100	> 100	> 70.3	> 100	36.8	> 100	70.6	–	–	–	–	–	–	–
COc1cc(/C=C/C(=O)/C=C/c2ccc(-n3ccnc3)cc2)ccc1O	5.98	55.8	3.79	35.5	–	6.49	4.46	2.24	20.8	1.87	8.38	–	2.42	1.54
c1ccc(-c2nc3ccccc3[nH]2)c(OCCCCCOc2ccccc2-c2nc3ccccc3[nH]2)c1	44.1	24.6	33.3	8.97	47.1	14	–	13.4	8.96	13.5	2.92	18.1	3.07	–
O=C(/C=C/c1ccccn1)c1ccccc1	–	21	27.6	18.3	85.3	19.2	6.6	–	8.32	14.4	5.06	3.84	6.09	2.37
COc1ccc(N=C2C(=O)Nc3ccc(Br)cc32)cc1	37.2	–	–	–	–	84.6	25.2	–	–	–	–	–	–	–
COc1cc([N+](=O)[O-])c(S(=O)(=O)O)cc1-[n+]1nc(C(=O)Nc2ccccc2)nn1-c1ccc([N+](=O)[O-])c(S(=O)(=O)[O-])c1	> 100	> 100	–	> 100	> 100	> 100	> 100	–	–	–	–	–	–	–
COc1cc(-c2ccc[nH]2)[nH]c1/C=C1\N=C(C)C(C(=O)NC(C)C)=C1C	4.4	5.49	18.9	–	25.4	19.8	5.97	1.97	2.45	4.62	–	4.81	7.17	2.23
COc1cc(COC(=O)N(C)[C@@H](Cc2ccccc2)C(=O)O)c([N+](=O)[O-])cc1OC	> 100	–	> 100	–	> 100	–	> 100	–	–	–	–	–	–	–
CC[C@]1(O)C[C@@H]2CN(CCc3c([nH]c4ccccc34)[C@@](C(=O)OC)(c3cc4c(cc3OC)N(C)[C@H]3[C@@](O)(C(=O)OC)[C@H](OC(=O)CCCBr)[C@]5(CC)C=CCN6CC[C@]43[C@@H]65)C2)C1	25.9	> 100	10.1	33.5	> 100	–	0.492	0.0543	0.0331	0.0637	–	0.0263	–	< 0.01
O=c1ccc(=O)c2c1c1[nH]c3ccccc3c1c1c(=O)c3ccccc3c(=O)c21	> 10	> 10	–	> 10	> 10	> 10	> 10	–	–	–	–	–	–	–
COc1ccc([C@H]2c3[nH]c4ccccc4c3C[C@H]3C(=O)N(CCCCCCC(=O)NO)CC(=O)N23)cc1	> 33.3	> 33.3	> 33.3	> 33.3	> 33.3	> 33.3	–	1.75	2.79	10.9	12.4	2.32	1.29	–

Source: PubChem BioAssay (NCI)
